≈ marks a conversion by molar mass, not a printed value. Where “and” joins values, the source holds several entries; their conditions need not be identical. Equal entries are not always repeated. Where two headings read alike, the source gives them in different places.
Key:
[1] = DPPH radical-scavenging assay of the isolated compounds; settings: mean ± SD, n = 3
Description: (§1) The DPPH radical-scavenging assay was performed according to a previously described method. All tests were performed in triplicate. Ascorbic acid and gallic acid were used as positive controls.

[2] = target: T1, α-Glucosidase type I (EC 3.2.1.20) (Saccharomyces cerevisiae, UniProt P53341); assay: biochemical
T1 construct: purchased Sigma-Aldrich Chemical Co. (St. Louis, MO)
T1 sequence (P53341 whole entry): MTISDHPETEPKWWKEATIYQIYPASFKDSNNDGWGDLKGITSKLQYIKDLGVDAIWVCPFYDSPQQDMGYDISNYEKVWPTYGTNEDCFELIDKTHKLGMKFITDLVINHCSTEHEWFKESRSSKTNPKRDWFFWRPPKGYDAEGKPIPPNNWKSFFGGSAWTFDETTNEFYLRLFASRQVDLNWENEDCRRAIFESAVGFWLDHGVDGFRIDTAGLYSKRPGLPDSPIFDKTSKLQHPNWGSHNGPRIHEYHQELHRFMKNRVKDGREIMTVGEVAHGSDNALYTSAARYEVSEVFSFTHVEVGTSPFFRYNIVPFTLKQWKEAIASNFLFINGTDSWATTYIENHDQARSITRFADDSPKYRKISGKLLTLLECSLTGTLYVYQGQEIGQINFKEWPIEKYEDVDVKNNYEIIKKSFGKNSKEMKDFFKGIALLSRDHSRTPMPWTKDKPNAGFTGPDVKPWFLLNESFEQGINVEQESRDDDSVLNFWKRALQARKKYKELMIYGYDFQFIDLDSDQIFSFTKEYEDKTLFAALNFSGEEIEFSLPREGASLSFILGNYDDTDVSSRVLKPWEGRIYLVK
Source text: α-Glucosidase type I (EC 3.2.1.20) from baker's yeast, p-nitrophenyl α-D-glucopyranoside (PNPG), streptozotocin (STZ), were purchased from Sigma-Aldrich Chemical Co. (St. Louis, MO). […] Phenazine methosulfate was purchased from J&K Chemical Ltd. (Shanghai, China). 2,2-Diphenyl-1-picrylhdrazyl (DPPH) was product of Aladdin Chemistry Co. Ltd. (Shanghai, China). Silica gel (200–300 mesh, Anhui Liangchen Silicon Material Co. Ltd. Anhui, China), Sephadex LH-20 (Pharmacia Biothech AB, Uppsala, Sweden), and ODS (40–60 μm, Merck KGaA, Darastadt, Germany) were used for column chromatography. HPLC-grade methanol was purchased from Jiangsu Hanbang Science and Technology Co. Ltd. (Nanjing, China). All other analytical chemicals and reagents were purchased from Sinopharm Chemical Regent Co. Ltd. (Shanghai, China).
The α-glucosidase inhibitory studies were performed spectrophotometrically on 96-well microplate reader according to a reported method. […] The assay was performed in triplicate.

[3] = Superoxide anion radical-scavenging assay (NADH/PMS system); settings: mean ± SD, n = 3; for EC50: isolated compounds
Source text: Superoxide radical were generated by the NADH/PMS system according to a reported protocol. Gallic acid was used as positive control.

[4] = test system: STZ-induced diabetic mice; assay: Fasting blood glucose of STZ-induced diabetic mice; format: in vivo; settings: 300 mg/kg p.o. two times a day, n = 8
Description: The mice were given 5% glucose solution orally in order to stave off the hypoglycemia during the first day after the injection of STZ [24]. In testing the FBG of the mice, a standard protocol developed by the American National Institute of Health was carried out. […] The FBG was measured using the Accu-Check Active Blood Glucose Meter (Roche Diagnostics, Mannheim, Germany). […] Sample suspended in distilled water containing 0.3% CMC-Na was administered p.o. two times a day for 2 weeks. FBG of the diabetic mice was determined on the day 7 and 14 as described before. On the day 14, the mice were sacrificed under diethyl ether anesthesia after the FBG determination. Blood was collected from the ophthalmic vein and allowed to clot at room temperature for 30 min. The serum was separate by centrifuging at 4000 rpm for 10 min with a refrigerated centrifuge. Liver and kidney were excised. Samples were stored at −20°C until used.

[5] = test system: STZ-induced diabetic mice; assay: SOD activity in serum, kidney and liver of STZ-induced diabetic mice; format: in vivo; settings: 300 mg/kg, 2 weeks
Description: (§2) Total 32 hyperglycemic mice were divided into four groups according to their FBG (8 mice per group): control (distilled water), MFE 100 (100 mg/kg BW), MFE 200 (200 mg/kg BW), and metformin (300 mg/kg BW). Sample suspended in distilled water containing 0.3% CMC-Na was administered p.o. two times a day for 2 weeks. FBG of the diabetic mice was determined on the day 7 and 14 as described before. On the day 14, the mice were sacrificed under diethyl ether anesthesia after the FBG determination. Blood was collected from the ophthalmic vein and allowed to clot at room temperature for 30 min. The serum was separate by centrifuging at 4000 rpm for 10 min with a refrigerated centrifuge. Liver and kidney were excised. Samples were stored at −20°C until used.
(§3) 10% solution of tissue homogenate was prepared as follows. Pieces of liver or kidney were homogenized in 9 volumes (w/v) ice-cold saline and centrifuged at 4000 rpm for 8 min. The supernatants were separated and stored at 4°C for analysis. Protein content of tissue homogenate was determined according to the Bradford method. Bovine serum albumin was used as standard. The superoxide dismutase (SOD), catalase (CAT) and glutathione peroxidase (GSH-Px) activities in liver and kidney tissue, the SOD and CAT activities in serum were determined using the respective commercial kits obtained from Nanjing Jiancheng Bioengineering Institute (Nanjing, China). SOD activity was determined by the nitrite method. SOD activity was expressed as units/mg protein or units/mL serum. The activity of CAT was measured using colorimetric method based on the decomposition of hydrogen peroxide (H2O2) by CAT. The enzyme catalysis was stopped by adding the solution of ammonium molybdate which can react with the rest H2O2 and give a yellow product. The product can be measured at 405 nm by its absorbance. The CAT activities of tissue or serum were presented as units/mg protein or units/mL serum respectively. GSH-Px activity was also measured according to a colorimetric method developed by Sedlak. […]

[6] = test system: STZ-induced diabetic mice; assay: GSH-Px activity in kidney and liver of STZ-induced diabetic mice; format: in vivo; settings: 300 mg/kg, 2 weeks
Description: as §2, with “Samples were stored at −20°C until used.” left out
10% solution of tissue homogenate was prepared as follows. […] Protein content of tissue homogenate was determined according to the Bradford method. […] The superoxide dismutase (SOD), catalase (CAT) and glutathione peroxidase (GSH-Px) activities in liver and kidney tissue, the SOD and CAT activities in serum were determined using the respective commercial kits obtained from Nanjing Jiancheng Bioengineering Institute (Nanjing, China). SOD activity was determined by the nitrite method. SOD activity was expressed as units/mg protein or units/mL serum. The activity of CAT was measured using colorimetric method based on the decomposition of hydrogen peroxide (H2O2) by CAT. […]

[7] = test system: STZ-induced diabetic mice; assay: CAT activity in serum, kidney and liver of STZ-induced diabetic mice; format: in vivo; settings: 300 mg/kg, 2 weeks
Description: as §2, §3

[8] = test system: STZ-induced diabetic mice; assay: Glycosylated serum protein (GSP) of STZ-induced diabetic mice, NBT colorimetric method; format: in vivo; settings: 300 mg/kg p.o. two times a day, n = 8
Description: as §2
GSP level was measured according to the nitroblue tetrazolium (NBT) colorimetric method using commercial kits purchased from Nanjing Jiancheng Bioengineering Institute (Nanjing, China). This method based on the ability of the ketoamine group of glycated proteins to reduce tetrazolium salt under alkaline conditions. Fructosamine was used as standard.

[9] = DPPH radical-scavenging assay of the extracts; settings: DPPH used was 2,2-Di(4-tert-octylphenyl)-1-picrylhydrazyl, mean ± SD, n = 3
Description: as §1

[10] = isolated compounds, mean ± SD, n = 3, read-out: IC50 α-glucosidase

EC50 [1] [µM]	EC50 [3] [µM]	IC50 [2, 10] [µM]	Compound	further results
9.18 ± 0.97	50.7 ± 6.7	600 ± 45.9	O=c1c(O[C@@H]2O[C@H](CO)[C@@H](O)[C@H](O)[C@H]2O)c(-c2ccc(O)c(O)c2)oc2cc(O[C@@H]3O[C@H](CO)[C@@H](O)[C@H](O)[C@H]3O)cc(O)c12 [Compound 6, quercetin 3,7-di-O-β-D-glucopyranoside]	
11.8 ± 1.04	45.1 ± 1.66	310 ± 12.7	CC(=O)OC[C@H]1O[C@@H](Oc2c(-c3ccc(O)c(O)c3)oc3cc(O)cc(O)c3c2=O)[C@H](O)[C@@H](O)[C@@H]1O [Compound 3, quercetin 3-O-(6′′-O-acetyl)-β-D-glucopyranoside]	
			CN(C)C(=N)N=C(N)N [Metformin]	FBG day 0 ([4]; day 0): 25.66 ± 5.95 mmol/L; FBG day 7 ([4]; day 7): 15.44±4.57c mmol/L; FBG day 14 ([4]; day 14): 17.38±5.31c mmol/L; Kidney SOD ([5]; kidney): 246.56±24.80b units/mg protein; Liver SOD ([5]; liver): 145.03±13.79 units/mg protein; Serum SOD ([5]; serum): 251.29±28.78b units/mL serum; Kidney GSH-Px ([6]; kidney): 240.36±40.31; Liver GSH-Px ([6]; liver): 275.78±21.02; Kidney CAT ([7]; kidney): 21.85±3.90b units/mg protein; Liver CAT ([7]; liver): 27.07±2.74 units/mg protein; Serum CAT ([7]; serum): 50.53±17.87c units/mL serum; GSP day 14 [8]: 6.06±0.47 mmol/L and 6.06±0.47b mmol/L
6.74 ± 0.28	45.8 ± 2.97		Oc1ccccc1O [Compound 25, pyrocatechol]	
> 500	417 ± 23.9		OCCc1ccc(O)cc1 [Compound 24, 2-(4-hydroxyphenyl)ethanol]	
11.9 ± 0.72	27.9 ± 0.59		O=c1c(O)c(-c2ccc(O)c(O)c2)oc2cc(O)cc(O)c12 [Compound 1, quercetin]	
7.89 ± 0.5		165 ± 11.6	O=c1c(O[C@@H]2O[C@H](CO)[C@@H](O)[C@H](O)[C@H]2O)c(-c2ccc(O)c(O)c2)oc2cc(O)cc(O)c12 [Compound 2, quercetin-3-O-β-D-glucopyranoside]	
6.46 ± 0.39	58.3 ± 2.39	933 ± 98.8	O=C1c2c(O)cc(O[C@@H]3O[C@H](CO)[C@@H](O)[C@H](O)[C@H]3O)cc2O[C@H](c2ccc(O)cc2)[C@H]1O [Compound 11, dihydrokaempferol 7-O-β-D-glucopyranoside]	
9.76 ± 0.61	30.6 ± 0.99	166 ± 11.7	C[C@@H]1O[C@@H](OC[C@H]2O[C@@H](Oc3c(-c4ccc(O)c(O)c4)oc4cc(O)cc(O)c4c3=O)[C@H](O)[C@@H](O)[C@@H]2O)[C@H](O)[C@H](O)[C@H]1O [Compound 4, quercetin 3-O-β-D-rutinoside]	
10.7 ± 0.34	214 ± 16.9		COC(=O)c1ccc(O)c(O)c1 [Compound 20, protocatechuic acid methyl ester]	
33.5 ± 1.2	> 500		O=C1O[C@H]([C@@H](O)CO)C(O)=C1O [Ascorbic acid, reference compound]	
> 500	150 ± 9.1	67.3 ± 5.51	CC(C)=CCc1c(O)ccc(C(=O)/C=C/c2ccc(O)cc2)c1O [Compound 12, isobavachalcone]	
5.18 ± 0.34	10.1 ± 0.39		O=C(O)c1cc(O)c(O)c(O)c1 [Gallic acid, reference compound]	EC50 DPPH [9]: 4.95 ± 0.24 µg/mL (≈ 29.1 µM); EC50 Superoxide anion ([3]; extracts): 5.21 ± 0.27 µg/mL (≈ 30.6 µM)
> 500	191 ± 15	50 ± 3.18	CC(C)=CCc1c(O)ccc(C(=O)/C=C/c2ccc(O)cc2O)c1O [Compound 13, 2,4,2′,4′,-tetrahydroxy-3′-(3-methyl-2-butenyl)-chalcone]	
301 ± 13.8	122 ± 5.49		O=c1c(O[C@@H]2O[C@H](CO)[C@@H](O)[C@H](O)[C@H]2O)c(-c2ccc(O)cc2)oc2cc(O)cc(O)c12 [Compound 7, kaempferol 3-O-β-D-glucopyranoside]	
222 ± 13.8	194 ± 8.12	728 ± 67.7	O=C1C[C@@H](c2ccc(O)c(O[C@@H]3O[C@H](CO)[C@@H](O)[C@H](O)[C@H]3O)c2)Oc2cc(O)cc(O)c21 [Compound 10, 5,7,4′-trihydroxy-flavanone-3′-O-β-D-glucopyranoside]	

Compound	EC50 [1] [µM]	EC50 [3] [µM]	IC50 [2, 10] [µM]	further results
O=C(O)Cc1c(O)cc(O)cc1OC(=O)c1ccc(O)c(O)c1 [Compound 15, 2-O-(3,4-dihydroxybenzoyl)-2,4,6-trihydroxyphenylacetic acid]	7.87 ± 0.73	15.2 ± 0.7		IC50 [2]: 116 ± 6.75 µM
CCOC(=O)c1ccc(O)c(O)c1 [Compound 21, protocatechuic acid ethyl ester]	9.04 ± 0.21	606 ± 25.8		
C=C(C)C1Cc2c(ccc(C(=O)/C=C/c3ccc(O)cc3)c2O)O1 (stereo not shown) [Compound 14]	> 500	175 ± 9.72		IC50 [2]: 225 ± 4.79 µM
O=C1C[C@@H](c2ccc(O[C@@H]3O[C@H](CO)[C@@H](O)[C@H](O)[C@H]3O)c(O)c2)Oc2cc(O)cc(O)c21 [Compound 9, 5,7,3′-trihydroxy-flavanone-4′-O-β-D-glucopyranoside]	79.4 ± 4.74	90.7 ± 8.28		IC50 [2]: 409 ± 38.7 µM
O=C(O)c1ccc(O)c(O)c1 [Compound 18, protocatechuic acid]	11.9 ± 0.69	101 ± 8.27		
O=c1c(O)c(-c2ccc(O)c(O)c2)oc2cc(O[C@@H]3O[C@H](CO)[C@@H](O)[C@H](O)[C@H]3O)cc(O)c12 [Compound 5, quercetin 7-O-β-D-glucopyranoside]	9.8 ± 0.53	24.6 ± 1.67		IC50 [2]: 370 ± 31.2 µM
C[C@@H]1O[C@@H](OC[C@H]2O[C@@H](Oc3c(-c4ccc(O)cc4)oc4cc(O)cc(O)c4c3=O)[C@H](O)[C@@H](O)[C@@H]2O)[C@H](O)[C@H](O)[C@H]1O [Compound 8, kaempferol 3-O-β-D-rutinoside]	152 ± 5.9	196 ± 7.98		IC50 [2]: 178.3 ± 0.35 µM
COC(=O)Cc1c(O)cc(O)cc1OC(=O)c1ccc(O)c(O)c1 [Compound 16, 2-O-(3,4-dihydroxybenzoyl)-2,4,6-trihydroxyphenylmethylacetate]	10.8 ± 0.94	37.5 ± 2.62		IC50 [2]: 31.7 ± 3.38 µM

Source: PMC3728024, “Antidiabetic and Antioxidant Effects and Phytochemicals of Mulberry Fruit (Morus alba L.) Polyphenol Enhanced Extract” (PLoS ONE, 2013)
